Target: T1, recombinant human MCHR1-receptors (Homo sapiens, UniProt Q99705)
T1 construct: expressed in transfected cells
Assay: MCHR filter binding assay (competition binding)
Details: membranes from CHO-K1 cells expressing human MCHR1; 0.2 nM [Phe13,[125I]Tyr19]-MCH; read-out: IC50 (nM), in vitro activity (binding assay)
Method in brief: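 Membranes from CHO-K1 cells stably expressing human MCHR1 (2.8 μg) preincubated 15 min with competitor, then 1 h at rt with 0.2 nM [Phe13,[125I]Tyr19]-MCH in HEPES/CaCl2/BSA/phenanthroline/Triton buffer. Bound radioactivity counted after rapid filtration over PVP/BSA-treated GF/B filters.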

T1 sequence (Q99705 whole entry): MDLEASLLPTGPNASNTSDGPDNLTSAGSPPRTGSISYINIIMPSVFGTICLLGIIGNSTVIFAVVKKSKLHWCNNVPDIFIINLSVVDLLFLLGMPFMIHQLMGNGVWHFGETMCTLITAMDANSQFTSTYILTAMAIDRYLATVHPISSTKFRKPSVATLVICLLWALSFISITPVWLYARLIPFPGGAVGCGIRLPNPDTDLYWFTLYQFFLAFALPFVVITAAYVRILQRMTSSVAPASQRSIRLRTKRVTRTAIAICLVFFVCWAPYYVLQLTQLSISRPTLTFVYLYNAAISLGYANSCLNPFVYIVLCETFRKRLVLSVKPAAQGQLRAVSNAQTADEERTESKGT

Row | Compound | IC50
1 | CCCC(=O)Nc1ccc2c(c1)C[C@H](CN1CC[C@@H](n3c(C4CC4)nc4cc(C)ccc43)[C@H](OC)C1)C2 [Example 79, N-{(R)-2-[(3R,4R)-4-(2-Cyclopropyl-5-methyl-benzoimidazol-1-yl)-3-methoxy-piperidin-1-ylmethyl]-indan-5-yl}-butyramide] | 20 to 200 nM
2 | CO[C@H]1CN(C[C@H]2Cc3ccc(Br)cc3C2)CC[C@@H]1n1c(C(C)C)nc2cc(C)ccc21 [Example 17, 1-[(3S,4S)-1-((S)-5-Bromo-indan-2-ylmethyl)-3-methoxy-piperidin-4-yl]-2-isopropyl-5-methyl-1H-benzoimidazole] | 20 to 200 nM
3 | Cc1ccc2c(c1)nc(C)n2C1CCN(CC2Cc3ccc(NC(=O)C(C)C)cc3C2)CC1 (stereo not shown) [Example 46, N-{2-[4-(2,5-Dimethyl-benzoimidazol-1-yl)-piperidin-1-ylmethyl]-indan-5-yl}-isobutyramide] | 20 to 200 nM
4 | CCOc1nc2cc(C)ccc2n1C1CCN(CC2Cc3ccc(NC(=O)C(C)C)cc3C2)CC1 (stereo in doubt) [Example 4, N-{(S)-2-[4-(2-Ethoxy-5-methyl-benzoimidazol-1-yl)-piperidin-1-ylmethyl]-indan-5-yl}-isobutyramide] | 20 to 200 nM
5 | CO[C@@H]1CN(C[C@@H]2Cc3ccc(NC(=O)C(C)C)cc3C2)CC[C@H]1n1c(C2CC2)nc2cc(C)ccc21 [Example 73, N-{(R)-2-[(3R,4R)-4-(2-Cyclopropyl-5-methyl-benzoimidazol-1-yl)-3-methoxy-piperidin-1-ylmethyl]-indan-5-yl}-isobutyramide] | 20 to 200 nM
6 | CCC(=O)Nc1ccc2c(c1)C[C@H](CN1CC[C@H](n3c(C4CC4)nc4cc(C)ccc43)[C@@H](OC)C1)C2 [Example 60, N-{(R)-2-[(3S,4S)-4-(2-Cyclopropyl-5-methyl-benzoimidazol-1-yl)-3-methoxy-piperidin-1-ylmethyl]-indan-5-yl}-propionamide] | < 20 nM
7 | CO[C@@H]1CN(C[C@@H]2Cc3ccc(F)cc3C2)CC[C@H]1n1c(C(C)(C)O)nc2cc(C)ccc21 [Example 109, 2-{1-[(3R,4R)-1-((R)-5-Fluoro-indan-2-ylmethyl)-3-methoxy-piperidin-4-yl]-5-methyl-1H-benzoimidazol-2-yl}-propan-2-ol] | 20 to 200 nM
